Laboratory results taken from US20190358369A1, “Drug releasing coatings for medical devices and methods of making same” (BIOTRONIK AG, priority 2016, published 2019).
Where two headings read alike, the source gives them in different places. Each block holds one compound with its values, some of them ahead of it.

Legend:
[1] = Porcine Coronary Arteries, from US 2014/0046254, cited from earlier work
[2] = molecular target: bovine serum albumin (BSA) (Bos taurus, UniProt P02769); experiment: Albumin binding by ammonium sulfate precipitation and LCMS; type: in vitro ADME; details: bovine serum albumin (BSA) solution, 10 uM drug, 1.4 mg/mL BSA in normal saline, 30 minutes ambient, supernatant, average of four separate days
Protocol: Sirolimus-albumin binding has previously been reported. […] The drug spiked BSA solutions were mixed by inversion and allowed to equilibrate at ambient temperature for 30 minutes to allow drug binding to the albumin protein. 826 mg ammonium sulfate was next added to each sample and mixed by gentle inversion until the salt had completely dissolved and precipitate formed. Samples were then vortexed for 20 seconds then centrifuged for 6.5 minutes at 7200×g. To both supernatant and separated precipitate 0.750 mL methanol and 0.250 mL acetonitrile containing internal standard was added to each sample. Samples were tested for drug content by LCMS where the supernatant amount represents unbound drug and the precipitate amount the bound drug. Recovery verifiction tests were performed as above but using solutions of saline plus drug without BSA.
Values reported are the average of a separate test on each of four separate days.

Sequence of bovine serum albumin (BSA) (P02769 25-607): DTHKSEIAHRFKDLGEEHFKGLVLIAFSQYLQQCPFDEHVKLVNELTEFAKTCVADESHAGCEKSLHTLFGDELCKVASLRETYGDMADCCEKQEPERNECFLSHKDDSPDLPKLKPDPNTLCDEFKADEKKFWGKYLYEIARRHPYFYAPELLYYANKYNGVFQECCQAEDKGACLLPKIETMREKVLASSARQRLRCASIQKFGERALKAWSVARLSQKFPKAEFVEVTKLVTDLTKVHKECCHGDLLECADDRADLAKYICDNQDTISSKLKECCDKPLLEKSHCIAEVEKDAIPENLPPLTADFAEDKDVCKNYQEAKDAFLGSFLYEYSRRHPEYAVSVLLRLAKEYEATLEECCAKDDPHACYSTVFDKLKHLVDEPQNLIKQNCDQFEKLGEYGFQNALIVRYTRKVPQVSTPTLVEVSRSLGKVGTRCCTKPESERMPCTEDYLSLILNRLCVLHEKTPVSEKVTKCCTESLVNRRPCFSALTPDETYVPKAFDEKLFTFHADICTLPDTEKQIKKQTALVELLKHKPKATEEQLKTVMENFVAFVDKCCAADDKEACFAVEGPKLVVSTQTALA

SMILES: CO[C@H]1C[C@@H]2CC[C@@H](C)[C@@](O)(O2)C(=O)C(=O)N2CCCC[C@H]2C(=O)O[C@H]([C@H](C)C[C@@H]2CC[C@@H](OCCO)[C@H](OC)C2)CC(=O)[C@H](C)/C=C(\C)[C@@H](O)[C@@H](OC)C(=O)[C@H](C)C[C@H](C)/C=C/C=C/C=C/1C [US 2014/0046254 Everolimus, Everolimus]
- Normalized Uptake (ng drug/mg tissue/μg drug on balloon) ([1]; 3 days): 0.02 ng/mg/µg

- fraction unbound at 30 min, 10 uM [2]: 0.062
SMILES: CO[C@H]1C[C@@H]2CC[C@@H](C)[C@@](O)(O2)C(=O)C(=O)N2CCCC[C@H]2C(=O)O[C@H]([C@H](C)C[C@@H]2CC[C@@H](O)[C@H](OC)C2)CC(=O)[C@H](C)/C=C(\C)[C@@H](O)[C@@H](OC)C(=O)[C@H](C)C[C@H](C)/C=C/C=C/C=C/1C [Sirolimus]

SMILES: CO[C@H]1C[C@@H]2CC[C@@H](C)[C@@](O)(O2)C(=O)C(=O)N2CCCC[C@H]2C(=O)O[C@H]([C@H](C)C[C@@H]2CC[C@H](n3cnnn3)[C@H](OC)C2)CC(=O)[C@H](C)/C=C(\C)[C@@H](O)[C@@H](OC)C(=O)[C@H](C)C[C@H](C)/C=C/C=C/C=C/1C [US 2014/0046254 Zotarolimus, Zotarolimus]
- Normalized Uptake (ng drug/mg tissue/μg drug on balloon) ([1]; 7 days): 0.04 ng/mg/µg
